# Where two headings read alike, the source gives them in different places.
# How the values were obtained:
# Leukemia subpanel = experiment: NCI-60 screen, subpanel Leukemia
# CNS cancer subpanel = experiment: NCI-60 screen, subpanel CNS cancer
# SNB-19 = experiment: NCI-60 SRB screen: CNS cancer SNB-19; assay type: cell-based, human
# SR = experiment: NCI-60 SRB screen: leukemia SR; assay type: cell-based; details: Homo sapiens, 48 h
# OVCAR-4 = experiment: NCI-60 SRB screen: ovarian cancer OVCAR-4; assay type: cell-based; details: Homo sapiens, OVCAR-4, 48 h
# NCI-H226 = experiment: NCI-60 SRB screen: non-small cell lung cancer NCI-H226; assay type: cell-based, human
# Melanoma subpanel = experiment: NCI-60 screen, subpanel Melanoma
# PC-3 = experiment: NCI-60 SRB screen: prostate cancer PC-3; assay type: cell-based, human
# UO-31 = experiment: NCI-60 SRB screen: renal cancer UO-31; assay type: cell-based, human
# MCF7 = experiment: NCI-60 SRB screen: breast cancer MCF7; assay type: cell-based; details: Homo sapiens, MCF7, 48 h
# UACC-62 = experiment: NCI-60 SRB screen: melanoma UACC-62; assay type: cell-based, human
# [1] = tested on: 60 human tumor cell lines; experiment: cells
# COLO 205 = experiment: NCI-60 SRB screen: colon cancer COLO 205; assay type: cell-based, human
# Colon Cancer subpanel = experiment: NCI-60 screen, subpanel Colon Cancer
# HL-60(TB) = experiment: NCI-60 SRB screen: leukemia HL-60(TB); assay type: cell-based; details: Homo sapiens, HL-60, 48 h
# HCT-116 = experiment: NCI-60 SRB screen: colon cancer HCT-116; assay type: cell-based; details: Homo sapiens, HCT-116, 48 h
# 786-0 = experiment: NCI-60 SRB screen: renal cancer 786-0; assay type: cell-based, human
# M14 = experiment: NCI-60 SRB screen: melanoma M14; assay type: cell-based, human
# SW-620 = experiment: NCI-60 SRB screen: colon cancer SW-620; assay type: cell-based; details: Homo sapiens, SW-620, 48 h
# UACC-257 = experiment: NCI-60 SRB screen: melanoma UACC-257; assay type: cell-based, human
# A498 = experiment: NCI-60 SRB screen: renal cancer A498; assay type: cell-based, human
# BT-549 = experiment: NCI-60 SRB screen: breast cancer BT-549; assay type: cell-based, human
# MDA-MB-468 = experiment: NCI-60 SRB screen: breast cancer MDA-MB-468; assay type: cell-based, human; details: for GI50: five concentrations, 48 h, SRB
# LOX IMVI = experiment: NCI-60 SRB screen: melanoma LOX IMVI; assay type: cell-based, human
# SK-OV-3 = experiment: NCI-60 SRB screen: ovarian cancer SK-OV-3; assay type: cell-based, human
# HCT-15 = experiment: NCI-60 SRB screen: colon cancer HCT-15; assay type: cell-based, human
# SN12C = experiment: NCI-60 SRB screen: renal cancer SN12C; assay type: cell-based, human
# [2] = tested on: 60 human tumor cell lines; details: single dose 10 µM
# SK-MEL-28 = experiment: NCI-60 SRB screen: melanoma SK-MEL-28; assay type: cell-based, human
# NCI/ADR-RES = experiment: NCI-60 SRB screen: ovarian cancer NCI/ADR-RES; assay type: cell-based, human
# SK-MEL-2 = experiment: NCI-60 SRB screen: melanoma SK-MEL-2; assay type: cell-based, human
# Prostate cancer subpanel = experiment: NCI-60 screen, subpanel Prostate cancer
# Breast cancer subpanel = experiment: NCI-60 screen, subpanel Breast cancer
# NCI-H522 = experiment: NCI-60 SRB screen: non-small cell lung cancer NCI-H522; assay type: cell-based, human
# [3] = read-out: Percentage Cell Growth
smiles,measurement,setting,value
C=C(C)[C@@H]1CC[C@]2(C(N)=O)CC[C@]3(C)[C@H](CC[C@@H]4[C@@]5(C)CC[C@H](O)C(C)(C)[C@@H]5CC[C@]43C)[C@@H]12 [Compound 5],"MID b, average sensitivity of all cell line of particular subpanel",Leukemia subpanel,3.20 µM
same,"Selectivity, ratio MID a: MID b",Leukemia subpanel,1.15
same,"MID b, average sensitivity of all cell line of particular subpanel",CNS cancer subpanel,3.23 µM
same,"Selectivity, ratio MID a: MID b",CNS cancer subpanel,1.14
same,GI50,"SNB-19; Homo sapiens, SNB-19, 48 h",4.57 µM
same,Percentage Cell Growth,"SNB-19; SNB-19, single dose 10 µM",1.30%
same,GI50,SR,4.14 µM
same,activity at 10 µM,SR; [3],15.5%
same,GI50,OVCAR-4,3.54 µM
same,GI50,"NCI-H226; Homo sapiens, NCI-H226, 48 h",4.11 µM
same,Percentage Cell Growth,"NCI-H226; NCI-H226, single dose 10 µM",−50.47%
same,"MID b, average sensitivity of all cell line of particular subpanel",Melanoma subpanel,5.58 µM
same,"Selectivity, ratio MID a: MID b",Melanoma subpanel,0.66
same,GI50,"PC-3; Homo sapiens, PC-3, 48 h",2.83 µM
same,Percentage Cell Growth,"PC-3; PC-3, single dose 10 µM",−24.47%
same,GI50,"UO-31; Homo sapiens, UO-31, 48 h",1.72 µM
same,Percentage Cell Growth,"UO-31; UO-31, single dose 10 µM",−100.00%
same,GI50,MCF7,2.91 µM
same,activity at 10 µM,MCF7; [3],-12.5%
same,GI50,"UACC-62; Homo sapiens, UACC-62, 48 h",4.2 µM
same,Percentage Cell Growth,"UACC-62; UACC-62, single dose 10 µM",−23.23%
same,GI50,[1]; read-out: GI50 ranges against all panels of NCI60,1.09 to 13.2 µM
same,GI50,"[1]; read-out: MID a, average sensitivity of all cell line (GI50-MID)",3.67 µM
same,Percentage Cell Growth,"COLO 205; COLO 205, single dose 10 µM",−66.21%
same,GI50,"COLO 205; Homo sapiens, COLO 205, 48 h",3.63 µM
same,"MID b, average sensitivity of all cell line of particular subpanel",Colon Cancer subpanel,3.21 µM
same,"Selectivity, ratio MID a: MID b",Colon Cancer subpanel,1.14
same,GI50,HL-60(TB),3.59 µM
same,activity at 10 µM,HL-60(TB); [3],1.17%
same,GI50,HCT-116,1.97 µM
same,activity at 10 µM,HCT-116; [3],-24.8%
same,Percentage Cell Growth,"786-0; 786-0, single dose 10 µM",−72.16%
same,GI50,"786-0; Homo sapiens, 786-0, 48 h",2.03 µM
same,GI50,"M14; Homo sapiens, M14, 48 h",6.05 µM
same,Percentage Cell Growth,"M14; M14, single dose 10 µM",8.80%
same,GI50,SW-620,3.88 µM
same,activity at 10 µM,SW-620; [3],-4.49%
same,GI50,"UACC-257; Homo sapiens, UACC-257, 48 h",13.2 µM
same,Percentage Cell Growth,"UACC-257; UACC-257, single dose 10 µM",−6.08%
same,Percentage Cell Growth,"A498; A498, single dose 10 µM",−28.33%
same,GI50,"A498; Homo sapiens, A498, 48 h",12.2 µM
same,Percentage Cell Growth,"BT-549; BT-549, single dose 10 µM",−21.60%
same,GI50,"BT-549; Homo sapiens, BT-549, 48 h",3.99 µM
same,GI50,"MDA-MB-468; Homo sapiens, MDA-MB-468, 48 h",1.97 µM
same,GI50,MDA-MB-468,3.2 µM
same,Percentage Cell Growth,MDA-MB-468; single dose 10 µM,−56.03%
same,GI50,"LOX IMVI; Homo sapiens, 48 h",1.77 µM
same,Percentage Cell Growth,LOX IMVI; single dose 10 µM,−72.80%
same,GI50,"SK-OV-3; Homo sapiens, SK-OV-3, 48 h",8.18 µM
same,Percentage Cell Growth,"SK-OV-3; SK-OV-3, single dose 10 µM",−45.72%
same,Percentage Cell Growth,"HCT-15; HCT-15, single dose 10 µM",6.36%
same,GI50,"HCT-15; Homo sapiens, HCT-15, 48 h",3.28 µM
same,GI50,"SN12C; Homo sapiens, 48 h",3 µM
same,Percentage Cell Growth,SN12C; single dose 10 µM,−45.76%
same,"cancer cell lethality, range of percentage growth",[2]; cell lines with negative growth,−1.70% to −100%
same,cases of cancer cell lethality,[2]; number of cell lines,49
same,GI50,"SK-MEL-28; Homo sapiens, SK-MEL-28, 48 h",1.09 µM
same,Percentage Cell Growth,"SK-MEL-28; SK-MEL-28, single dose 10 µM",0.38%
same,GI50,"NCI/ADR-RES; Homo sapiens, 48 h",3.17 µM
same,Percentage Cell Growth,NCI/ADR-RES; single dose 10 µM,−8.91%
same,GI50,"SK-MEL-2; Homo sapiens, SK-MEL-2, 48 h",7.63 µM
same,Percentage Cell Growth,"SK-MEL-2; SK-MEL-2, single dose 10 µM",−31.18%
same,"MID b, average sensitivity of all cell line of particular subpanel",Prostate cancer subpanel,3.02 µM
same,"Selectivity, ratio MID a: MID b",Prostate cancer subpanel,1.22
same,"MID b, average sensitivity of all cell line of particular subpanel",Breast cancer subpanel,3.73 µM
same,"Selectivity, ratio MID a: MID b",Breast cancer subpanel,0.98
same,GI50,"NCI-H522; Homo sapiens, NCI-H522, 48 h",3.13 µM
same,Percentage Cell Growth,"NCI-H522; NCI-H522, single dose 10 µM",−53.76%
